{"source": "patent US20100222421A1", "about": "“Usage of Baicalein in the Preparation of a Pharmaceutical Composition for the Treatment of Traumatic Brain Injury” (National Defense Medical Center, priority 2009, published 2010)", "assay_type_in_all_cases": "in vivo, rat", "key": {"[1]": {"tested_on": "rats with controlled cortical impact (CCI) injury", "experiment": "Beam walk test after CCI injury", "procedure": "A previously described CCI injury procedure was utilized (Chen et al., 2003). Male Sprague-Dawley rats, which have body weight of 250-300 g, were anaesthetized with sodium pentobarbital (i.p.; 50 mgkg^−1; Rhone Merieux, Harlow, UK) and placed in a stereotaxic frame. A 5-mm craniotomy was performed over the left parietal cortex, centered on the coronal suture and 3 mm lateral to the sagittal suture. Considerable care was taken to avoid injury to the underlying dura. Injury was made using a pneumatic piston with a rounded metal tip (2.5 mm diameter) that was angled 22.5° C. to the vertical so that the tip was perpendicular with the brain surface at the centre of the craniotomy. A velocity of 4 ms^−1 and a deformation depth 2 mm below the dura were used. The bone flap was immediately replaced and sealed, and the scalp was closed with sutures. Body temperature was monitored throughout the surgery by a rectal probe; temperature was maintained at 37.0±0.5° C. using a heated pad. Rats were placed in a heated cage to maintain body temperature, while recovering from anaesthesia. Baicalein (30 mg kg^−1) dissolved in 10% dimethyl sulphoxide (0.25-0.3 mL) or a corresponding volume of vehicle (10% dimethyl sulphoxide) was administered i.p. immediately following injury or daily for 4 days (immediately, 25, 49 and 73 h) after injury. Behaviour testing using the rotarod, tactile adhesive removal, mNSS and beam walk tests was performed at 28 hours as well as 4, 7, 14, 21 and 28 days post-injury. At 14 and 28 days, the animals were killed, perfused intravascularly and their brains were processed with cresyl violet staining to assess contusion volume (n=8 for each group). […] Behaviour testing was performed before CCI and at […] by an observer who was unaware of the experimental treatments. The battery of tests consisted of the rotarod motor test, tactile adhesive-removal somatosensory test, mNSS and beam walk test. Animals were pretrained for 3 days for the rotarod, tactile adhesiveremoval somatosensory and beam walk tests (see below). The beam walk test was utilized to evaluate fine motor coordination and function (Feeney et al., 1982). Rats escaped from a bright light and loud white noise by walking along a narrowed wooden beam (2.5×122.0 cm) to enter a darkened goal box at the opposite end of the beam. The latency for the rat to reach the goal box (not to exceed 60 s) and hindlimb performance as he traversed the beam (based on a 1-7 rating scale) were recorded. A score of 7 was given when animals traversed the beam with two or less foot slips. A score of 6 was given when animals traversed the beam with less than 50% foot slips. A score of 5 was given for more than 50% but less than 100% foot slips. A score of 4 was given for 100% foot slips. A score of 3 was given for traversal with the affected limb extended and not reaching the surface of the beam. A score of 2 was given when the animal was able to balance on the beam but not traverse it. A score of 1 was given when the animal could not balance on the beam. Three trials were recorded 1 hour before CCI (baseline), and each day after CCI. Mean values of latency and score for each day were computed."}, "[2]": {"tested_on": "IL-6 protein", "experiment": "ELISA, IL-6 protein after CCI injury", "settings": "single-dose 30 mg kg^-1 i.p.; ipsilateral cortex, 1 day post-injury; P<0.01", "procedure": "(§1) A previously described CCI injury procedure was utilized (Chen et al., 2003). Male Sprague-Dawley rats, which have body weight of 250-300 g, were anaesthetized with sodium pentobarbital (i.p.; 50 mgkg^−1; Rhone Merieux, Harlow, UK) and placed in a stereotaxic frame. A 5-mm craniotomy was performed over the left parietal cortex, centered on the coronal suture and 3 mm lateral to the sagittal suture. Considerable care was taken to avoid injury to the underlying dura. Injury was made using a pneumatic piston with a rounded metal tip (2.5 mm diameter) that was angled 22.5° C. to the vertical so that the tip was perpendicular with the brain surface at the centre of the craniotomy. A velocity of 4 ms^−1 and a deformation depth 2 mm below the dura were used. […] Body temperature was monitored throughout the surgery by a rectal probe; temperature was maintained at 37.0±0.5° C. using a heated pad. […]\n(§2) Single-dose baicalein (30 mg kg^−1) or a corresponding volume of vehicle was administered i.p. immediately following injury. […] Testing after injury was as follows: (1) real-time quantitative RT-PCR analysis for TNF-α, IL-1β and IL-6 mRNA expression at 6 h post-injury (n=7 for each group); (2) FluoroJade B (FJB) staining, TNF-α, IL-1β and IL-6 immunohistochemistry, as well as ELISA at 24 h post-injury to assess degenerative neurons and to determine cytokine expression (n=7 for each group). […]"}, "[3]": {"tested_on": "TNF-α protein", "experiment": "ELISA, TNF-α protein after CCI injury", "settings": "single-dose 30 mg kg^-1 i.p.; ipsilateral cortex, 1 day post-injury; P<0.05", "procedure": "as §1, §2"}}}
{"smiles": "O=c1cc(-c2ccccc2)oc2cc(O)c(O)c(O)c12", "note": "[baicalein]", "values": [{"measurement": "differences in hindlimb motor scores between single-dose and multiple-dose groups", "setting": "[1]; 30 mg kg^-1 i.p., any testing day, P>0.05", "result": "not significant"}, {"measurement": "beam walk latencies, multiple-dose versus single-dose group", "setting": "[1]; 30 mg kg^-1 i.p., days 1 and 4, P<0.05", "result": "significantly shorter"}, {"measurement": "beam walk latencies versus vehicle group", "setting": "[1]; multiple-dose 30 mg kg^-1 i.p. daily for 4 days, days 1, 4, 7, 21 and 28, P<0.05", "result": "significantly shorter"}, {"measurement": "decrease in hindlimb motor scores (beam walk) versus vehicle group", "setting": "[1]; multiple-dose 30 mg kg^-1 i.p. daily for 4 days, days 1, 4, 14, 21 and 28, P<0.05", "result": "significantly different"}, {"measurement": "decrease in hindlimb motor scores (beam walk) versus vehicle group", "setting": "[1]; single-dose 30 mg kg^-1 i.p., days 4, 7, 14 and 21, P<0.05", "result": "significantly different"}, {"measurement": "beam walk latencies versus vehicle group", "setting": "[1]; single-dose 30 mg kg^-1 i.p., days 4 and 21, P<0.05", "result": "significantly shorter"}, {"measurement": "IL-6 protein concentration, % of concentration in vehicle-treated rats", "setting": "[2]", "result": 67, "unit": "%"}, {"measurement": "TNF-α protein concentration, % of concentration in vehicle-treated rats", "setting": "[3]", "result": 54, "unit": "%"}]}
